Test results taken from patent US5026731A, “Pharmaceutical composition and method of treating psychoses” (Schering Corporation, priority 1990, dated 1991).

Columns and labels:
dopamine D-1 receptor = molecular target: T1, dopamine D-1 receptor (Bos taurus, UniProt Q95136); test: Competitive inhibition binding assay, 3H-Sch 23390 (D1-binding), bovine striatal membranes; conditions: for Ki: 3H-Sch 23390 binding, bovine striatal membranes, 30 minute at 37° C., Tris-HCl pH 7.4
T1 construct: Striata were dissected on ice and membranes prepared as described earlier; from tissue; host or cells: bovine striatum (membranes; brains from a local slaughter house)
Procedure: (§1) Compounds of represented by formula I may be synthesized as disclosed herein and diluted in 0.05M Tris buffer, pH 7.4, as required.
(§2) Bovine brains were obtained from a local slaughter house, on ice. […] Briefly, the striata were homogenized in 20 volumes of Tris-HCl (50 mM) buffer, pH 7.4, using a Polytron (Brinkmann) homogenizer, setting 7; membranes were washed by centrigugation (20,000×g) and resuspending in buffer, twice, and finally resuspended in assay buffer (Tris-HCl, 50 mM, pH 7.4, containing 120 mM NaCl, 5 mM KCl, […], 1 mM MgCl2). At least 3-4 different pools of membrane were processed and stored at -80° C.
(§3) For competition studies, several concentration of test drug or standard were included, ranging from 10^-4 to 10^-3. Tubes were incubated, 30 minute incubations at 37° C. were terminated by rapid filtration under vacuum, on to GF/B filters, presoaked in 0.3% polyethyleneamine (PEl), with three 5 ml washes.

D-2 receptor = molecular target: T2, D-2 receptor (Bos taurus, UniProt P20288); test: Competitive inhibition binding assay, 3H-spiperone (D2-binding), bovine striatal membranes
T2 construct: Striata were dissected on ice and membranes prepared as described earlier; from tissue; host or cells: bovine striatum (membranes; brains from a local slaughter house)
Procedure: as §1, §2, §3

[1] = 3H-spiperone binding, bovine striatal membranes, 30 minute at 37° C., Tris-HCl pH 7.4

T1 sequence (Q95136 whole entry): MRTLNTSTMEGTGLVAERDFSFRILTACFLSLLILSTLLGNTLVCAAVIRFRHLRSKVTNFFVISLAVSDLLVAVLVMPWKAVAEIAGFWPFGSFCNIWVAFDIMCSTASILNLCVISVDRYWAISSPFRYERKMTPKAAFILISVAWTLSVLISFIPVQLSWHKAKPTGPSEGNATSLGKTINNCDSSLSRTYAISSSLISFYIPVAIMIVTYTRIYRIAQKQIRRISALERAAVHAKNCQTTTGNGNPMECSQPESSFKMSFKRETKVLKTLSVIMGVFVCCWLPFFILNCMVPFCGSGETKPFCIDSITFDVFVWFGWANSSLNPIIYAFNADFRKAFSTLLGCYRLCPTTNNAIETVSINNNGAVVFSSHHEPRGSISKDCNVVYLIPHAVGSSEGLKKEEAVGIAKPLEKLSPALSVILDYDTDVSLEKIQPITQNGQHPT
T2 sequence (P20288 whole entry): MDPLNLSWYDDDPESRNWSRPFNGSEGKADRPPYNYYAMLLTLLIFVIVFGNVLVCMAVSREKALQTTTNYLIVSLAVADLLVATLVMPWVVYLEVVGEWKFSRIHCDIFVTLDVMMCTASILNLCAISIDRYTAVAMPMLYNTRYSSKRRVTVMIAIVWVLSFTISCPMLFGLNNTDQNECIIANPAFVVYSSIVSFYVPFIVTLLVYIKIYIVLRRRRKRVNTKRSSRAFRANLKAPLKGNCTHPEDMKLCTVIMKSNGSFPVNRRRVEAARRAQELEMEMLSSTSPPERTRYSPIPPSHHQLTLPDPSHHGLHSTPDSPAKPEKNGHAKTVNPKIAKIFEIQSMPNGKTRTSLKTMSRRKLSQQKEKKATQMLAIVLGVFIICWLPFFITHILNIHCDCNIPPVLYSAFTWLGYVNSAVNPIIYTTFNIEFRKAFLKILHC

Row | Compound | Ki (dopamine D-1 receptor) [nM] | Ki (D-2 receptor; [1]) [nM] | Ki (D-2 receptor; pH 7.4) [nM] | D1 receptor selectivity (D1 versus D2) (dopamine D-1 receptor; from the Ki data of Table 1, D1 vs D2)
1 | CN1CCc2cc(Cl)c(O)cc2[C@@H](c2ccccc2)C1 [Sch 23390, (R)-(+)-8-chloro-2,3,4,5-tetrahydro-3-methyl-5-phenyl-1H-3-benzazepin-7-olhemimaleate] | 0.8 | 800 |  | 
2 | (+) butaclamol |  |  | 1 | 
3 | CC(=O)Nc1cc(O)ccc1O [2,5-dihydroxyacetanilide] | 1200 to 2000 | 200000 |  | more than 100 fold
